Assay results as given in patent US9512120B2, “Microbicidally active imidazopyridine derivatives” (Syngenta Participations AG, priority 2013, dated 2016).

How the values were obtained:
[1] = tested on: Botryotinia fuckeliana (Botrytis cinerea); assay: Botryotinia fuckeliana (Botrytis cinerea) / liquid culture (gray mould); type: cell-based; details: Vogels broth, 24° C., 3-4 days after application, read-out: control of Botryotinia fuckeliana (inhibition of growth, photometric)
Summary of the method: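 Test compound was applied at 200 ppm in DMSO, then Vogels nutrient broth containing cryo-stored B. cinerea conidia was added. Photometric growth-inhibition reading followed after 3-4 days at 24 °C.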

[2] = tested on: Mycosphaerella arachidis (Cercospora arachidicola); assay: Mycosphaerella arachidis (Cercospora arachidicola) / liquid culture (early leaf spot); type: cell-based; details: PDB, 24° C., 4-5 days after application, read-out: control of Mycosphaerella arachidis (inhibition of growth, photometric)
Protocol: Mycosphaerella Arachidis (Cercospora arachidicola)/Liquid Culture (Early Leaf Spot): Conidia of the fungus from cryogenic storage were directly mixed into nutrient broth (PDB potato dextrose broth). After placing a DMSO solution of test compound into a 96-well microtiter plate at an application rate of 200 ppm, the nutrient broth containing the fungal spores was added. The test plates are incubated at 24° C. and the inhibition of growth was determined photometrically 4-5 days after application.

[3] = tested on: Thanatephorus cucumeris (Rhizoctonia solani); assay: Thanatephorus cucumeris (Rhizoctonia solani) / liquid culture (foot rot, damping-off); type: cell-based; details: PDB, 24° C., 3-4 days after application, read-out: control of Thanatephorus cucumeris (inhibition of growth, photometric)
Summary of the method: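 At 200 ppm, compounds in DMSO were combined with fresh liquid-culture mycelia in PDB and kept at 24° C; photometric measurement of growth inhibition after 3-4 days.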

[4] = tested on: Monographella nivalis (Microdochium nivale); assay: Monographella nivalis (Microdochium nivale) / liquid culture (foot rot cereals); type: cell-based; details: PDB, 24° C., 4-5 days after application, read-out: control of Monographella nivalis (inhibition of growth, photometric)
Summary of the method: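 Cryostored conidia in potato dextrose broth were added to test compound dispensed from DMSO at 200 ppm. Plates were kept at 24° C, and growth inhibition was read photometrically 4-5 days after application.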

[5] = tested on: Pyrenophora teres; assay: Pyrenophora teres / barley / leaf disc preventative (net blotch); type: in vivo; details: foliar, barley leaf segments cv Hasso, inoculated two days after application, assessed 5-7 days after application, read-out: control of Pyrenophora teres (disease control compared to untreated)
Summary of the method: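 Preventative leaf-disc test: 200 ppm spray, then spore inoculation after two days on barley cv Hasso segments. Incubation 20 °C, 65% relative humidity, 12 h light/12 h dark; efficacy rated against untreated checks at 5-7 days post-application.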

[6] = tested on: Mycosphaerella graminicola (Septoria tritici); assay: Mycosphaerella graminicola (Septoria tritici) / liquid culture (Septoria blotch); type: cell-based; details: Zymoseptoria tritici, PDB, 24° C., 4-5 days after application, read-out: control of Mycosphaerella graminicola (inhibition of growth, photometric)
Summary of the method: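 Growth inhibition was read photometrically after 4–5 days at 24 °C. The test compound was applied at 200 ppm from DMSO solution, then PDB broth seeded with conidia taken straight from cryogenic storage was added.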

[7] = tested on: Gaeumannomyces graminis; assay: Gaeumannomyces graminis / liquid culture (take-all of cereals); type: cell-based; details: PDB, 24° C., 4-5 days after application, read-out: control of Gaeumannomyces graminis (inhibition of growth, photometric)
Summary of the method: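 Growth inhibition, measured by photometry 4-5 days post-application at 24 °C, of fungal mycelial fragments in PDB broth. Test compound applied as DMSO solution at 200 ppm.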

[8] = tested on: Phaeosphaeria nodorum (Septoria nodorum); assay: Phaeosphaeria nodorum (Septoria nodorum) / wheat / leaf disc preventative (glume blotch); type: in vivo; details: Parastagonospora nodorum, foliar, wheat leaf segments cv Kanzler, inoculated 2 days after application, assessed 5-7 days after application, read-out: control of Phaeosphaeria nodorum (percent disease control compared to untreated)
Protocol: Phaeosphaeria nodorum (Septoria nodorum)/Wheat/Leaf Disc Preventative (Glume Blotch): Wheat leaf segments cv Kanzler were placed on agar in a 24-well plate and sprayed with formulated test compound diluted in water at an application rate of 200 ppm. The leaf disks are inoculated with a spore suspension of the fungus 2 days after application. The inoculated test leaf disks are incubated at 20° C. and 75% relative humidity under a light regime of 12/12 h (light/dark) in a climate cabinet and the activity of a compound is assessed as percent disease control compared to untreated when an appropriate level of disease damage appears in untreated check leaf disks (5-7 days after application).

[9] = tested on: Glomerella lagenarium (Colletotrichum lagenarium); assay: Glomerella lagenarium (Colletotrichum lagenarium) / liquid culture (anthracnose); type: cell-based; details: Colletotrichum orbiculare, PDB, 24° C., 3-4 days after application, read-out: control of Glomerella lagenarium (inhibition of growth, photometric)
Summary of the method: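 Test compound, delivered in DMSO at an application rate of 200 ppm, was combined with spore-containing PDB. Photometric growth-inhibition measurement followed 3-4 days of incubation at 24° C.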

[10] = tested on: Puccinia recondita f. sp. Tritici; assay: Puccinia recondita f. sp. tritici / wheat / leaf disc preventative (brown rust); type: in vivo; details: foliar, wheat leaf segments cv Kanzler, inoculated 1 day after application, assessed 7-9 days after application, read-out: control of Puccinia recondita f. sp. Tritici (percent disease control compared to untreated)
Summary of the method: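 Preventative test: percent disease control relative to untreated leaf segments was assessed 7-9 days post-application. Wheat (cv Kanzler) leaf discs were treated at 200 ppm and spore-inoculated 1 day afterwards. Discs were held at 19° C and 75% relative humidity under a 12/12 h light cycle.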

[11] = tested on: Plasmopara viticola; assay: Plasmopara viticola / grape / leaf disc preventative; type: in vivo; details: foliar, grape vine leaf disks, inoculated 1 day after application, assessed 6-8 days after application, read-out: control of Plasmopara viticola (percent disease control compared to untreated)
[12] = tested on: Sclerotinia sclerotiorum; assay: Sclerotinia sclerotiorum liquid culture (cottony rot / white mold); type: cell-based; details: PDB, 24° C., 3-4 days after application, read-out: control of Sclerotinia sclerotiorum (inhibition of growth, photometric)
Protocol: Sclerotinia sclerotiorum (Cottony Rot/White Mold): Mycelia fragments of a newly grown liquid culture of the fungus were directly mixed into nutrient broth (PDB potato dextrose broth). After placing a (DMSO) solution of test compound into a microtiter plate (96-well format) the nutrient broth containing the fungal material was added. The test plates are incubated at 24° C. and the inhibition of growth was determined photometrically 3-4 days after application.

Row | SMILES | inhibition at 20 ppm [1] [%] | inhibition at 20 ppm [2] [%] | inhibition at 20 ppm [3] [%] | melting point [°C] | inhibition at 20 ppm [4] [%] | pest or weed control at 200 ppm [5] [%] | inhibition at 20 ppm [6] [%] | inhibition at 20 ppm [7] [%] | pest or weed control at 200 ppm [8] [%] | inhibition at 20 ppm [9] [%] | pest or weed control at 200 ppm [10] [%] | pest or weed control at 200 ppm [11] [%] | inhibition at 20 ppm [12] [%]
1 | CCn1c(-n2ncnc2N)nc2cncc(C(C)=NOC)c21 [Compound 133] | ≥ 80 | ≥ 80 | ≥ 80 | 170 to 173 | ≥ 80 | ≥ 80 | ≥ 80 | ≥ 80 |  |  |  |  | 
2 | Nc1ncnn1-c1nc2cncc(Br)c2n1CC(F)(F)F [Compound 76, 2-[7-bromo-1-(2,2,2-trifluoroethyl)imidazo[4,5-c]pyridin-2-yl]-1,2,4-triazol-3-amine] | ≥ 80 |  | ≥ 80 | 234 to 236 |  | ≥ 80 | ≥ 80 | ≥ 80 | ≥ 80 | ≥ 80 |  |  | 
3 | CCn1c(-n2ncnc2N)nc2cncc(-c3ccc(C)cc3)c21 [Compound 28, 2-[1-ethyl-7-(4-methylphenyl)imidazo[4,5-c]pyridin-2-yl]-1,2,4-triazol-3-amine] | ≥ 80 |  | ≥ 80 | 234 to 236 |  | ≥ 80 | ≥ 80 |  |  | ≥ 80 | ≥ 80 |  | 
4 | CCn1c(-n2ncnc2N)nc2cncc(C(C)=NOCc3c(Cl)cccc3Cl)c21 [Compound 160] |  |  | ≥ 80 |  |  | ≥ 80 | ≥ 80 |  |  |  | ≥ 80 | ≥ 80 | 
5 | CCCn1c(-n2ncnc2N)nc2cncc(-c3ccc(Cl)cc3Cl)c21 [Compound 118, 2-[7-(2,4-dichlorophenyl)-1-propylimidazo[4,5-c]pyridin-2-yl]-1,2,4-triazol-3-amine] | ≥ 80 |  | ≥ 80 |  | ≥ 80 | ≥ 80 | ≥ 80 | ≥ 80 | ≥ 80 | ≥ 80 |  | ≥ 80 | 
6 | CCn1c(-n2ncnc2N)nc2cncc(Cc3ccccc3)c21 [Compound 25, 2-(7-benzyl-1-ethylimidazo[4,5-c]pyridin-2-yl)-1,2,4-triazol-3-amine] | ≥ 80 |  | ≥ 80 | 220 to 224 | ≥ 80 |  | ≥ 80 | ≥ 80 |  |  |  |  | 
7 | CCn1c(-n2ncnc2N)nc2cncc(C(C)=NOCC(F)(F)F)c21 [Compound 169] | ≥ 80 |  | ≥ 80 |  |  | ≥ 80 | ≥ 80 |  |  | ≥ 80 | ≥ 80 | ≥ 80 | 
8 | CCn1c(-n2ncnc2N)nc2cncc(-c3cccc4ccccc34)c21 [Compound 40, 2-(1-ethyl-7-naphthalen-1-ylimidazo[4,5-c]pyridin-2-yl)-1,2,4-triazol-3-amine] |  |  | ≥ 80 |  |  | ≥ 80 | ≥ 80 |  |  |  |  | ≥ 80 | 
9 | CCn1c(-n2ncnc2N)nc2cncc(C(C)=NOC(C)(C)C)c21 [Compound 140] | ≥ 80 | ≥ 80 | ≥ 80 | 171 to 175 |  | ≥ 80 | ≥ 80 | ≥ 80 |  | ≥ 80 | ≥ 80 |  | 
10 | CCc1nc(N)n(-c2nc3cnccc3n2C2CCCCC2)n1 [Compound 7, 2-(1-cyclohexylimidazo[4,5-c]pyridin-2-yl)-5-ethyl-1,2,4-triazol-3-amine] |  |  |  | 198 to 203 |  |  |  |  |  | ≥ 80 |  |  | 
11 | Nc1nc(C(F)(F)F)nn1-c1nc2cnccc2n1C1CCCCC1 [Compound 3, 2-(1-cyclohexylimidazo[4,5-c]pyridin-2-yl)-5-(trifluoromethyl)-1,2,4-triazol-3-amine] |  |  |  | 203 to 206 |  |  |  |  |  | ≥ 80 |  |  | 
12 | CCn1c(-n2ncnc2N)nc2cncc(/C(C)=N\OC(C)C)c21 [Compound 166] | ≥ 80 |  | ≥ 80 |  |  | ≥ 80 | ≥ 80 |  |  | ≥ 80 | ≥ 80 | ≥ 80 | 
13 | Nc1nc(C2CC2)nn1-c1nc2cnccc2n1C1CCCCC1 [Compound 8, 2-(1-cyclohexylimidazo[4,5-c]pyridin-2-yl)-5-cyclopropyl-1,2,4-triazol-3-amine] |  |  |  | 196 to 199 |  |  |  |  |  | ≥ 80 |  |  | 
14 | CCn1c(-n2ncnc2N)nc2cncc(CCc3ccccc3)c21 [Compound 24, 2-[1-ethyl-7-(2-phenylethyl)imidazo[4,5-c]pyridin-2-yl]-1,2,4-triazol-3-amine] | ≥ 80 |  | ≥ 80 | 205 to 208 | ≥ 80 | ≥ 80 | ≥ 80 | ≥ 80 |  | ≥ 80 | ≥ 80 |  | 
15 | CCn1c(-n2ncnc2N)nc2cncc(C(C)=NOCc3ccccc3Cl)c21 [Compound 144] | ≥ 80 |  | ≥ 80 |  | ≥ 80 | ≥ 80 | ≥ 80 |  | ≥ 80 | ≥ 80 | ≥ 80 | ≥ 80 | ≥ 80
16 | CCn1c(-n2ncnc2N)nc2cncc(/C(C)=N\OCC=C(C)C)c21 [Compound 156] | ≥ 80 |  | ≥ 80 |  | ≥ 80 | ≥ 80 | ≥ 80 |  | ≥ 80 | ≥ 80 | ≥ 80 | ≥ 80 | ≥ 80
17 | CCn1c(-n2ncnc2N)nc2cncc(C(C)=NOCc3ccccc3OC)c21 [Compound 146] | ≥ 80 |  | ≥ 80 |  |  | ≥ 80 | ≥ 80 |  |  | ≥ 80 | ≥ 80 | ≥ 80 | 
